Results on one compound are retold here after patent US20180185370A1, “PYRAZINOQUINAZOLINONE DERIVATIVES WITH ANTIBACTERIAL ACTIVITY, METHODS AND USES THEREOF” (UNIVERSIDADE DO PORTO, priority 2015, published 2018).

The subject of one test is S. aureus ATCC 25923. Description: Antibacterial susceptibility testing, broth microdilution (MIC/MBC). In kind it is cell-based, Staphylococcus aureus. The protocol: (§1) Bacterial strains and growth conditions. Five reference strains, Staphylococcus aureus ATCC 25923, Bacillus subtilis ATCC 6633, E. faecalis ATCC 29212, Escherichia coli ATCC 25922 and Pseudomonas aeruginosa ATCC 27853, and three multidrug-resistant isolates from environment, S. aureus B1 (a MRSA isolated from public buses), Enterococcus faecalis W1 (a VRE isolated from river water) and E. coli G1 (isolated from seagull feces) were used. Bacteria were grown overnight at 37° C. in Mueller-Hinton agar (MH—BioKar diagnostics, Allonne, France) prior to obtain be used in the subsequently described bioassays.
(§2) Antibacterial susceptibility testing. The minimum inhibitory concentration (MIC) values of the compounds of FIGS. 1D, 1E, 1G, 1H (equation i-iv) and 11 (equations v-x) were determined, in particular, by a broth microdilution technique, following the recommendations of the Clinical and Laboratory Standards Institute. Stock solutions of 10 mg/ml in DMSO were used to prepare in-test concentrations ranging from 2 to 256 μg/ml. Ciprofloxacin in the concentration range from 0.03125 to 16 μg/ml was used, in particular, as control drug in the experiment. The MIC was defined as the lowest concentration of compound that has inhibited the visible growth. The minimum bactericidal concentration (MBC) was determined by spreading on MH plates, 10 μL collected from the wells corresponding to the MIC and to higher concentrations, with further incubation for 24 h at 37° C.; the lowest concentration at which no growth occurred on MH was defined as the MBC.
On the technique in general: Broth dilution looks for growth in wells or tubes with falling amounts of substance.

The subject of the next test is S. aureus B1 (MRSA). Described as above. It counts as cell-based, Staphylococcus aureus. The conditions noted are these: S. aureus B1 (MRSA). The protocol:
as §1, §2

In a further test the test system is B. subtilis ATCC 6633. Described as above. In kind it is cell-based, Bacillus subtilis. As for the experimental part:
as §1, §2

The subject of another test is P. aeruginosa ATCC 27853. Description: Antibacterial susceptibility testing, broth microdilution (MIC). It counts as cell-based, Pseudomonas aeruginosa. The protocol:
as §1, §2

A further test concerns E. coli ATCC 25922. The test is described as above. In kind it is cell-based, Escherichia coli. The protocol:
as §1, §2

Another test concerns E. faecalis ATCC 29212. Description: Antibacterial susceptibility testing, broth microdilution (MIC/MBC). In kind it is cell-based, Enterococcus faecalis. The protocol:
as §1, §2

In the next test the test system is E. faecalis W1 (VRE). The description is as above. In kind it is cell-based, Enterococcus faecalis. The conditions noted are these: E. faecalis W1 (VRE). The protocol:
as §1, §2

The subject of test [1] is S. aureus B1. Description: Synergy screening with antibiotic discs, disc diffusion method. In kind it is cell-based, Staphylococcus aureus. The conditions noted are these: for inhibition zone: S. aureus B1. The protocol: (§3) Synergistic studies between compounds and antibiotics. A screening susceptibility test to assess the combined effect between the compounds and antibiotics was conducted using the disc diffusion method on MH, against three multidrug-resistant isolates, E. coli G1, S. aureus B1 and E. faecalis W1. A set of antibiotic discs (Oxoid, Basingstoke, England) was selected based on the resistance of the isolates towards those antibiotics. Based on the results of the previous assay, an unexpected synergetic effect between fiscalin C (see FIG. 1I, equation v) and oxacillin (Sigma-Aldrich, St. Louis, Mo., USA) was determined using, in particular, a broth microdilution Checkerboard method against the MRSA isolate (S. aureus B1). The fractional inhibitory concentration (FIC) was calculated as follows: FIC of drug A (FIC A)=MIC of drug A in combination/MIC of drug A alone, and FIC of drug B (FIC B)=MIC of drug B in combination/MIC of drug B alone. The FIC index (ΣFIC), calculated as the sum of each FIC, was interpreted as follows: ΣFIC 0.5, synergy; 0.5<ΣFIC 4, no interaction; 4<ΣFIC, antagonism.

Test [2] has as its system S. aureus B1. Description: Broth microdilution Checkerboard method. In kind it is cell-based, Staphylococcus aureus. The following applies: for combined effect with oxacillin: fiscalin C with oxacillin, MRSA (S. aureus B1). The protocol: as §3, with “Based on the results of the previous assay, an unexpected synergetic effect between fiscalin C (see FIG. 1I, equation v) and oxacillin (Sigma-Aldrich, St. Louis, Mo., USA) was determined using, in particular, a broth microdilution Checkerboard method against the MRSA isolate (S. aureus B1).” left out

Regarding `CC(C)[C@@H]1NC(=O)[C@@H](C[C@]2(O)c3ccccc3N3C(=O)C(C)(C)N[C@H]32)n2c1nc1ccccc1c2=O` [FIG. 1I (eq. v), fiscalin C], the “Minimum inhibitory concentration-MIC” value in the test with S. aureus ATCC 25923, in the test on S. aureus B1 (MRSA), with B. subtilis ATCC 6633, with P. aeruginosa ATCC 27853, in the test with E. coli ATCC 25922 and in the test on E. faecalis ATCC 29212 was above 256 µg/mL each time. The “Minimum inhibitory concentration-MIC” value with E. faecalis W1 (VRE) was above 256 µg/mL. In addition, the inhibition zone in the test on S. aureus B1 [1] (fiscalin C in combination with ampicillin) is recorded as 8 mm; in the test with S. aureus B1 [1] (fiscalin C in combination with oxacillin) it was 10 mm. Also, the “zone of inhibition on agar plates” value in the test on S. aureus B1 [1] (not in combination, MRSA isolate S. aureus B1) is reported as “neither fiscalin C, ampicillin or oxacillin produced any zone of inhibition”. In the test on S. aureus B1 [2] (drug alone, S. aureus B1), the MIC is above 512 µg/mL. Besides, the “combined effect with ampicillin” value in the test on S. aureus B1 [2] (fiscalin C with ampicillin, S. aureus B1) is “indifferent”. The entries for the “combined effect with oxacillin” value in the test with S. aureus B1 [2] (listed as Fiscalin C) and in the test on S. aureus B1 [2] (listed as fiscalin C) were “synergistic effect” and “clear synergistic effect”, respectively.

As usually defined, the MIC is the smallest concentration in the dilution series that meets the test's criterion for growth inhibition.
